Results as given in patent US20210084904A1, “SUCCINATE DEHYDROGENASE INHIBITORS AND SULFUR-CONTAINING COMPOUNDS MIXTURES AND METHODS OF USE THEREOF” (University of Georgia Research Foundation, Inc., priority 2019, published 2021).

System: Cercosporidium personatum
Assay: Greenhouse test: efficacy on peanut late leaf spot, foliar spray
Format: in vivo
Conditions: leaves sprayed, infected peanut plants
Procedure: The following greenhouse test was conducted Sep. 14, 2019. Peanut plants (Arachis hypogaea) were used in the test as the crop plant. The peanut plants were infected Cercosporidium personatum.
Leaves were sprayed with inpyfluxam, chlorothalonil, benzovindiflupyr, prothioconazole, and/or sulfur at the rates disclosed in Table 1. All data was analyzed for significance.

Question: With inpyrfluxam as the compound, how does the “% Control” value (application rate 2.0 ounces/acre) read?
Answer: 32.5b %

Question: What about the “% Control” value (application rate 3.0 ounces/acre) of the same compound?
Answer: 31.3bc %

Question: And the “% Control” value (application rate 4.0 ounces/acre)?
Answer: 30.0bc %

Question: `OC(Cc1ccccc1Cl)(Cn1nc[nH]c1=S)C1(Cl)CC1` (centres unmarked) [Prothioconazole, prothioconazole] was tested. Which “% Control” value (application rate 7.0 ounces/acre) did it give?
Answer: 10.0d %

Question: How did the “% Control” value (application rate 24.0 ounces/acre) turn out when `N#Cc1c(Cl)c(Cl)c(Cl)c(C#N)c1Cl` [Chlorothalonil, chlorothalonil] was run?
Answer: 27.5c %
